Results published in the kinase profiling compilation of Christmann-Franck et al. (2016).

Columns and labels:
Experiment in all cases: KINOMEscan competition binding
Settings in all cases: compound 10.0 µM
BLK (human) = BLK (human) (UniProt P51451)
CAMK2B (human) = CAMK2B (human) (UniProt Q13554)
CAMK2D (human) = CAMK2D (human) (UniProt Q13557)
CAMK2G (human) = CAMK2G (human) (UniProt Q13555)
CAMKK1 (human) = CAMKK1 (human) (UniProt Q8N5S9)
CDK19 (human) = CDK19 (human) (UniProt Q9BWU1)
CDK2 (human) = CDK2 (human) (UniProt P24941)
CDK9 (human) = CDK9 (human) (UniProt P50750)
CDKL3 (human) = CDKL3 (human) (UniProt Q8IVW4)
Chain of CDKL3 (human) (Q8IVW4 whole entry, looked up): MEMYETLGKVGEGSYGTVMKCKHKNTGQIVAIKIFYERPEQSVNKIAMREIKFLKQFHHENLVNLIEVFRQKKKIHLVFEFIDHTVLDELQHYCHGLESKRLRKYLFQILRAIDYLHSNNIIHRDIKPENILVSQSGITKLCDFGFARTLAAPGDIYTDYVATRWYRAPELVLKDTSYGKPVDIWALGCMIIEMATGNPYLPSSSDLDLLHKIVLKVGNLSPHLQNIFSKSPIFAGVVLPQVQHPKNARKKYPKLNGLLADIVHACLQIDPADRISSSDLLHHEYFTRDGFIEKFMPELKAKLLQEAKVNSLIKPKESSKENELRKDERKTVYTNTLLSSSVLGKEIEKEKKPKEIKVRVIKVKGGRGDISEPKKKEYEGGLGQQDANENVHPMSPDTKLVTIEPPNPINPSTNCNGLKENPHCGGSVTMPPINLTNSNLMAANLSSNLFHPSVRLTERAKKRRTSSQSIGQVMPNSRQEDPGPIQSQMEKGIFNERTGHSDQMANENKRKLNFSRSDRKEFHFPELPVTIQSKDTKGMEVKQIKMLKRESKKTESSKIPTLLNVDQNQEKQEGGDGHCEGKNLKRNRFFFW

CSNK1A1L (human) = CSNK1A1L (human) (UniProt Q8N752)
DCLK2 (human) = DCLK2 (human) (UniProt Q8N568)
DDR2 (human) = DDR2 (human) (UniProt Q16832)
DYRK2 (human) = DYRK2 (human) (UniProt Q92630)
EPHB6 (human) = EPHB6 (human) (UniProt O15197)
FER (human) = FER (human) (UniProt P16591)
FGFR1 (human) = FGFR1 (human) (UniProt P11362)
IGF1R (human) = IGF1R (human) (UniProt P08069)
IRAK3 (human) = IRAK3 (human) (UniProt Q9Y616)
Chain of IRAK3 (human) (Q9Y616 whole entry, looked up): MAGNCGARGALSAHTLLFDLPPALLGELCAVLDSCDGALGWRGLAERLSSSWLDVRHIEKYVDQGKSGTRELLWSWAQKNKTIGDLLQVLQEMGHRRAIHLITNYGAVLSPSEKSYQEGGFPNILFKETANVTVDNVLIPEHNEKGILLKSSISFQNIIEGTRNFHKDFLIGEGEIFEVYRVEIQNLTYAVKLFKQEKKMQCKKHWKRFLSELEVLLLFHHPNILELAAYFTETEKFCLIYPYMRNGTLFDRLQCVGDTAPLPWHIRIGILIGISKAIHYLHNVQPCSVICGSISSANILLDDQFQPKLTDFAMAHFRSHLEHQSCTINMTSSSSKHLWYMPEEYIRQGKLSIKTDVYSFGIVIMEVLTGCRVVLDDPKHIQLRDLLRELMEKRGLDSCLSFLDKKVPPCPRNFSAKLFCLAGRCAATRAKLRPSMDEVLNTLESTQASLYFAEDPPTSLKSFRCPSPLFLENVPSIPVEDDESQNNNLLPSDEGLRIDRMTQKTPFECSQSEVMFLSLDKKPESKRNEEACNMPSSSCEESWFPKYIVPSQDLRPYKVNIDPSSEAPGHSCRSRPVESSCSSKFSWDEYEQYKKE

[1] = biological target: JAK3 JH1 catalytic (human) (UniProt P52333)
LIMK1 (human) = LIMK1 (human) (UniProt P53667)
MAP3K15 (human) = MAP3K15 (human) (UniProt Q6ZN16)
MAP3K6 (human) = MAP3K6 (human) (UniProt O95382)
MAP3K9 (human) = MAP3K9 (human) (UniProt P80192)
Chain of MAP3K9 (human) (P80192 whole entry, looked up): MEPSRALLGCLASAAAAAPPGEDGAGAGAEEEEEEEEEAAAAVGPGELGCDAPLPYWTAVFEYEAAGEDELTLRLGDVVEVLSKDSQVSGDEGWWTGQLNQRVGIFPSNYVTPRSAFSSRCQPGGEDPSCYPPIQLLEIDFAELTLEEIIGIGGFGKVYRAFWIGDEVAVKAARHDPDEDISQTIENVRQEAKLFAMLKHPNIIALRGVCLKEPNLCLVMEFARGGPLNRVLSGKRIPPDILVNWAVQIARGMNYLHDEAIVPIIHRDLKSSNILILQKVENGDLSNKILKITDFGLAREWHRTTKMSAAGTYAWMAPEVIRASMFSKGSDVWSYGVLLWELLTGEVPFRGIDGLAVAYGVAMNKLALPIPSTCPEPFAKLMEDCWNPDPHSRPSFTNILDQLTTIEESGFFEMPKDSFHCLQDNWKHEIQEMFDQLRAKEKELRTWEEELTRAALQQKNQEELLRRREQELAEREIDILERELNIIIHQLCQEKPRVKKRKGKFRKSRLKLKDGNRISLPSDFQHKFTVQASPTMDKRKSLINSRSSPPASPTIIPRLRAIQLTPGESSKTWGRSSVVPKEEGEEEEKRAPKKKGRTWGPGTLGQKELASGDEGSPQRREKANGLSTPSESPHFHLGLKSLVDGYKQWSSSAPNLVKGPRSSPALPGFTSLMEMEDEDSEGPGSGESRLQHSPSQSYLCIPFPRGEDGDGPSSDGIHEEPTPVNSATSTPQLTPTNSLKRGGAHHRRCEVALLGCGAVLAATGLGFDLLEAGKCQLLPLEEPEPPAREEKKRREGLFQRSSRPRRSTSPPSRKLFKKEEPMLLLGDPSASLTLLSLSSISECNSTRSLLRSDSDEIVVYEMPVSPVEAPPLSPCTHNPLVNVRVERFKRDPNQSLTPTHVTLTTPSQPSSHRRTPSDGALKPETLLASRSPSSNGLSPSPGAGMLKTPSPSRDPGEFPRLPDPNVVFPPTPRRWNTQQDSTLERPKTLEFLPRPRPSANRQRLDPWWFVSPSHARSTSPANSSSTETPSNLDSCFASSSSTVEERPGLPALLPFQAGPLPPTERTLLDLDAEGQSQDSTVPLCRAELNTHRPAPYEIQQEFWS

MAPK6 (human) = MAPK6 (human) (UniProt Q16659)
Chain of MAPK6 (human) (Q16659 whole entry, looked up): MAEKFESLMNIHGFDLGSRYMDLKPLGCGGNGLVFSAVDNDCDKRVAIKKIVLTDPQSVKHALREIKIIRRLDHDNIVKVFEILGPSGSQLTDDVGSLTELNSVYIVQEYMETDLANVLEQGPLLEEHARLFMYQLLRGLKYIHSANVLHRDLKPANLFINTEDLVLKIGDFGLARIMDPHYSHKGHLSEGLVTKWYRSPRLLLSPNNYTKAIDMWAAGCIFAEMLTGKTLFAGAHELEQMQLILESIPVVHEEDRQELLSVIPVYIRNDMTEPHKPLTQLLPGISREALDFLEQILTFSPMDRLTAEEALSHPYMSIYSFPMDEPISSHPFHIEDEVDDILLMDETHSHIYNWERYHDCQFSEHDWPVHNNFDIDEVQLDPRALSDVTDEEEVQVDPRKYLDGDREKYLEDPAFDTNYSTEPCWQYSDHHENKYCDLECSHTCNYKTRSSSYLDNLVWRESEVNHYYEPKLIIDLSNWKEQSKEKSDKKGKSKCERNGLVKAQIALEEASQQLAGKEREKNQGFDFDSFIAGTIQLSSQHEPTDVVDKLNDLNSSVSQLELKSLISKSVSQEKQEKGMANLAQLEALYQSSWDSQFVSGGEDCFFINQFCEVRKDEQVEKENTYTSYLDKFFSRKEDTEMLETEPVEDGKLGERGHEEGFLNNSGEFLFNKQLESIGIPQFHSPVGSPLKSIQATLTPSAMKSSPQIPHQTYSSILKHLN

MAPK8 (human) = MAPK8 (human) (UniProt P45983)
MAST1 (human) = MAST1 (human) (UniProt Q9Y2H9)
MATK (human) = MATK (human) (UniProt P42679)
MTOR (human) = MTOR (human) (UniProt P42345)
MYLK4 (human) = MYLK4 (human) (UniProt Q86YV6)
NEK7 (human) = NEK7 (human) (UniProt Q8TDX7)
PAK4 (human) = PAK4 (human) (UniProt O96013)
PIP5K1C (human) = PIP5K1C (human) (UniProt O60331)
Chain of PIP5K1C (human) (O60331 whole entry, looked up): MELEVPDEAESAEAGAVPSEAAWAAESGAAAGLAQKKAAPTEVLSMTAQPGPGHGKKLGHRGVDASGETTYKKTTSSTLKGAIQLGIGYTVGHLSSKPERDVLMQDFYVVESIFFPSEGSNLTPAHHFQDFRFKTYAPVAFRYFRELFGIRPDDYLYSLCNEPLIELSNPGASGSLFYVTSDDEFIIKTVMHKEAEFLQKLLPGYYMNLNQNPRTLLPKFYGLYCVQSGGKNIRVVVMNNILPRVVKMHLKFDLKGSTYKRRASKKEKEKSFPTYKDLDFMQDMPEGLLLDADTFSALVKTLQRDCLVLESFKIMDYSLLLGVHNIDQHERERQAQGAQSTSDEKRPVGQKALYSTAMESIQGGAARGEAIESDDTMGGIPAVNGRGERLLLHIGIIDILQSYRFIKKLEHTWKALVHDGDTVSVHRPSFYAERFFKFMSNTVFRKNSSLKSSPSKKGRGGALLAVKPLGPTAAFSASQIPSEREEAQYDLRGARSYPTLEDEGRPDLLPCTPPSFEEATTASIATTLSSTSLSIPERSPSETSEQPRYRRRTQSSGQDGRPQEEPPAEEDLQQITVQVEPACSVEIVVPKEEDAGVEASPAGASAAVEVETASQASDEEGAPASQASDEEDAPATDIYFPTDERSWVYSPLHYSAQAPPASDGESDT

PRKCQ (human) = PRKCQ (human) (UniProt Q04759)
[2] = system: RET (human), P07949 [M918T]
Chain of RET (human), P07949 [M918T] (P07949 whole entry M918T, looked up): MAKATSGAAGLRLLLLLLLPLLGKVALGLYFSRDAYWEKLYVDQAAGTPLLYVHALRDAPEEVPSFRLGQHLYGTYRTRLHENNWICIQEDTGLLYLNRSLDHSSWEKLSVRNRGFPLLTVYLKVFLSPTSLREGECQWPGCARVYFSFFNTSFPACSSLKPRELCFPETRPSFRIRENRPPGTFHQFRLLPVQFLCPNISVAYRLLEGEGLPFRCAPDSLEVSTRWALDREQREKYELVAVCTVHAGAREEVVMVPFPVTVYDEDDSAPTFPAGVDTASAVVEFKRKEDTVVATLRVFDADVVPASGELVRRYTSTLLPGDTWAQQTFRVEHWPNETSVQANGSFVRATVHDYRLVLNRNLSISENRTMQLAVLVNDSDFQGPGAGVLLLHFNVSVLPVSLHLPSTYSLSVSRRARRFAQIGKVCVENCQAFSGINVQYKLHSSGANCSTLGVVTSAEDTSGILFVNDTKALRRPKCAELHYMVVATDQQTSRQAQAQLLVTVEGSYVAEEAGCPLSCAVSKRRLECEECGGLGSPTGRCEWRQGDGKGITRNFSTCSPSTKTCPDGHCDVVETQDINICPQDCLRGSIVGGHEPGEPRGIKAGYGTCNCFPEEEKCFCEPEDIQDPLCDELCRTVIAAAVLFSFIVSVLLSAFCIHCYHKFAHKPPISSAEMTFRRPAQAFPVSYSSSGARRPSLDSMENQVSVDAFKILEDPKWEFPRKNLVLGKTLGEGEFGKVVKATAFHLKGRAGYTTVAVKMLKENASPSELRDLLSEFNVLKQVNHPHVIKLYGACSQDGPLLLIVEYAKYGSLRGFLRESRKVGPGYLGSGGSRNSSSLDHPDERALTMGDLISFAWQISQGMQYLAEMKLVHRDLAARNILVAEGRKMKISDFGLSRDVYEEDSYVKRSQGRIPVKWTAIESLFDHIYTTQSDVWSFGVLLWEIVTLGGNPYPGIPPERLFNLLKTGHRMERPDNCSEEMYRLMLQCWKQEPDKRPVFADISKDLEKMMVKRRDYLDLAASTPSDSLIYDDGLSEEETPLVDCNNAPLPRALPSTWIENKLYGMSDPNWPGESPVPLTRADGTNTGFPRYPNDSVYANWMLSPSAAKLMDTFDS

RPS6KA5 KD2 (human) = RPS6KA5 KD2 (human) (UniProt O75582)
SRMS (human) = SRMS (human) (UniProt Q9H3Y6)
SRPK1 (human) = SRPK1 (human) (UniProt Q96SB4)
TNK2 (human) = TNK2 (human) (UniProt Q07912)
TNNI3K (human) = TNNI3K (human) (UniProt Q59H18)
STK16 (human) = STK16 (human) (UniProt O75716)

Row | Compound | kinase still bound, per cent of control (CAMK2B (human)) [%] | kinase still bound, per cent of control (CAMK2D (human)) [%] | kinase still bound, per cent of control (CDK19 (human)) [%] | kinase still bound, per cent of control (CDK2 (human)) [%] | kinase still bound, per cent of control (CDK9 (human)) [%] | kinase still bound, per cent of control (CDKL3 (human)) [%] | kinase still bound, per cent of control (CSNK1A1L (human)) [%] | kinase still bound, per cent of control (DCLK2 (human)) [%] | kinase still bound, per cent of control (DDR2 (human)) [%] | kinase still bound, per cent of control (DYRK2 (human)) [%] | kinase still bound, per cent of control (EPHB6 (human)) [%] | kinase still bound, per cent of control (FGFR1 (human)) [%] | kinase still bound, per cent of control (IGF1R (human)) [%] | kinase still bound, per cent of control (IRAK3 (human)) [%] | kinase still bound, per cent of control [1] [%] | kinase still bound, per cent of control (LIMK1 (human)) [%] | kinase still bound, per cent of control (MAP3K15 (human)) [%] | kinase still bound, per cent of control (MAP3K6 (human)) [%] | kinase still bound, per cent of control (MAP3K9 (human)) [%] | kinase still bound, per cent of control (MAPK6 (human)) [%] | further results
1 | COCC(=O)NC/C=C/c1ccc2ncnc(Nc3ccc(Oc4ccc(C)nc4)c(C)c3)c2c1 | 88 | 100 | 0.5 | 92 | 100 | 100 | 82 | 100 | 100 | 100 | 74 | 100 | 83 | 82 | 100 | 93 | 100 | 100 | 74 | 100 | kinase still bound, per cent of control (BLK (human)): 62%; kinase still bound, per cent of control (CAMK2G (human)): 94%; kinase still bound, per cent of control (CAMKK1 (human)): 96%; kinase still bound, per cent of control (FER (human)): 100%; kinase still bound, per cent of control (MAPK8 (human)): 66%; kinase still bound, per cent of control (MAST1 (human)): 100%; kinase still bound, per cent of control (MATK (human)): 100%; kinase still bound, per cent of control (MTOR (human)): 79%; kinase still bound, per cent of control (MYLK4 (human)): 100%; kinase still bound, per cent of control (NEK7 (human)): 73%; kinase still bound, per cent of control (PAK4 (human)): 87%; kinase still bound, per cent of control (PIP5K1C (human)): 93%; kinase still bound, per cent of control (PRKCQ (human)): 100%; kinase still bound, per cent of control [2]: 77%; kinase still bound, per cent of control (RPS6KA5 KD2 (human)): 98%; kinase still bound, per cent of control (SRMS (human)): 71%; kinase still bound, per cent of control (SRPK1 (human)): 100%; kinase still bound, per cent of control (TNK2 (human)): 78%; kinase still bound, per cent of control (TNNI3K (human)): 100%
2 | COc1cc2ncn(-c3cc(OCc4ccccc4C(F)(F)F)c(C(N)=O)s3)c2cc1OC | 75 | 75 | 100 | 73 | 100 | 100 | 78 | 99 | 81 | 37 | 9.9 | 43 | 100 | 67 | 40 | 79 | 63 | 84 | 71 | 64 | kinase still bound, per cent of control (CAMK2G (human)): 83%; kinase still bound, per cent of control (FER (human)): 100%; kinase still bound, per cent of control (MAPK8 (human)): 100%; kinase still bound, per cent of control (MAST1 (human)): 75%; kinase still bound, per cent of control (MATK (human)): 85%; kinase still bound, per cent of control (MTOR (human)): 78%; kinase still bound, per cent of control (MYLK4 (human)): 17%; kinase still bound, per cent of control (NEK7 (human)): 74%; kinase still bound, per cent of control (PAK4 (human)): 100%; kinase still bound, per cent of control (PIP5K1C (human)): 10%; kinase still bound, per cent of control [2]: 8%; kinase still bound, per cent of control (RPS6KA5 KD2 (human)): 76%; kinase still bound, per cent of control (SRMS (human)): 58%; kinase still bound, per cent of control (STK16 (human)): 49%; kinase still bound, per cent of control (TNK2 (human)): 54%; kinase still bound, per cent of control (TNNI3K (human)): 81%
3 | CNC(=O)c1cc(Oc2ccc(NC(=O)Nc3ccc(Cl)c(C(F)(F)F)c3)cc2)ccn1 | 84 | 95 | 1.4 | 33 | 81 | 0.6 | 98 | 100 | 14 | 95 | 3 | 5.2 | 100 | 81 | 58 | 30 | 100 | 100 | 88 | 100 | kinase still bound, per cent of control (BLK (human)): 31%; kinase still bound, per cent of control (CAMKK1 (human)): 89%; kinase still bound, per cent of control (FER (human)): 87%; kinase still bound, per cent of control (MAPK8 (human)): 100%; kinase still bound, per cent of control (MAST1 (human)): 100%; kinase still bound, per cent of control (MATK (human)): 100%; kinase still bound, per cent of control (MTOR (human)): 80%; kinase still bound, per cent of control (MYLK4 (human)): 100%; kinase still bound, per cent of control (NEK7 (human)): 100%; kinase still bound, per cent of control (PAK4 (human)): 91%; kinase still bound, per cent of control (PIP5K1C (human)): 87%; kinase still bound, per cent of control (PRKCQ (human)): 84%; kinase still bound, per cent of control [2]: 0.1%; kinase still bound, per cent of control (RPS6KA5 KD2 (human)): 100%; kinase still bound, per cent of control (SRPK1 (human)): 80%; kinase still bound, per cent of control (STK16 (human)): 100%; kinase still bound, per cent of control (TNK2 (human)): 96%; kinase still bound, per cent of control (TNNI3K (human)): 19%
4 | NC(=O)Nc1cc(-c2cccc(F)c2)sc1C(=O)N[C@@H]1CCCNC1 | 19 | 6.7 | 100 | 93 | 88 | 100 | 2.4 | 2.4 | 0 | 26 | 50 | 1.3 | 44 | 6.4 | 0 | 62 | 28 | 25 | 0.15 | 54 | kinase still bound, per cent of control (BLK (human)): 0%; kinase still bound, per cent of control (CAMK2G (human)): 24%; kinase still bound, per cent of control (CAMKK1 (human)): 7%; kinase still bound, per cent of control (MAPK8 (human)): 29%; kinase still bound, per cent of control (MAST1 (human)): 4.1%; kinase still bound, per cent of control (MATK (human)): 34%; kinase still bound, per cent of control (MTOR (human)): 72%; kinase still bound, per cent of control (MYLK4 (human)): 51%; kinase still bound, per cent of control (NEK7 (human)): 72%; kinase still bound, per cent of control (PAK4 (human)): 1.2%; kinase still bound, per cent of control (PIP5K1C (human)): 27%; kinase still bound, per cent of control (PRKCQ (human)): 0%; kinase still bound, per cent of control [2]: 0%; kinase still bound, per cent of control (RPS6KA5 KD2 (human)): 9%; kinase still bound, per cent of control (SRMS (human)): 0%; kinase still bound, per cent of control (SRPK1 (human)): 1.4%; kinase still bound, per cent of control (STK16 (human)): 21%; kinase still bound, per cent of control (TNK2 (human)): 0.85%; kinase still bound, per cent of control (TNNI3K (human)): 7.3%
